From patent US20260363244A1, “HERBICIDAL COMPOSITIONS COMPRISING URACILS” (BASF SE, priority 2022, published 2026)
Where two headings read alike, the source gives them in different places.

Key:
Format in all cases: in vivo
Abutilon theophrasti = experiment: greenhouse post-emergence herbicidal activity, ABUTH; conditions: read-out: % activity (solo application); for activity at 0.4 g/ha: 0.4 gai/ha; for activity at 0.8 g/ha: 0.8 gai/ha
Procedure: (§1) The following examples serve to illustrate the invention.
(§2) The culture containers used were plastic pots containing loamy sand with approximately 3.0% of humus as substrate. The seeds of the test plants were sown separately for each species.
(§3) For the post-emergence treatment, the test plants were grown to a plant height of from 3 to 15 cm, depending on the plant habit, and only then treated with the active compounds which had been suspended or emulsified in water. To this end, the test plants were either sown directly, and grown in the same containers, or they were first grown separately as seedlings and transplanted into the test containers a few days prior to treatment.
(§4) Depending on the species, the plants were kept at 10-25 °C and 20-35 °C, respectively. The test period extended over 2 to 4 weeks. During this time, the plants were tended and their response to the individual treatments was evaluated.
(§5) Evaluation was carried out using a scale from 0 to 100. 100 means no emergence of the plants, or complete destruction of at least the above-ground parts, and 0 means no damage or normal course of growth. A good herbicidal activity is given at values of at least 70, and very good herbicidal activity is given at values of at least 85.
(§6) The respective stated components A and B, and if appropriate, C were formulated as a 5% by weight strength emulsion concentrate and, with addition of the amount of solvent system, introduced into the spray liquor used for applying the active compound. In the examples, the solvent used was water.
(§7) In the examples below, using the method of S. R. Colby (1967) “Calculating synergistic and antagonistic responses of herbicide combinations”, Weeds 15, p. 22ff., the value E, which is expected if the activity of the individual active compounds is only additive, was calculated.
(§8) E=X+Y−(X·Y/100) • where • X=percent activity using active compound A at an application rate a; • Y=percent activity using active compound B at an application rate b; • E=expected activity (in %) by A+B at application rates a+b.
(§9) The plants used in the greenhouse experiments were of the following species
(§10) In this context, a.i. means active ingredient, based on 100% active ingredient.
(§11) As indicated the application was post emergent (POST) at the respective growth stage (GS) of the weed.
(§12) Assessment was at the indicated days after treatment (DAT).

Amaranthus tamariscinus = experiment: greenhouse post-emergence herbicidal activity, AMATA; conditions: read-out: % activity (solo application); for activity at 0.4 g/ha: 0.4 gai/ha
Procedure: as §1, §2, §3, §4, §5, §6, §7, §8, §9, §10, §11, §12

Avena fatua = experiment: greenhouse post-emergence herbicidal activity, AVEFA; conditions: read-out: % activity (solo application); for activity at 0.4 g/ha: 0.4 gai/ha
Procedure: as §1, §2, §3, §4, §5, §6, §7, §8, §9, §10, §11, §12

Brachiaria decumbens = experiment: greenhouse post-emergence herbicidal activity, BRADC; conditions: for activity at […]: Urochloa decumbens, post-emergence, read-out: % activity (solo application)
Procedure: as §1, §2, §3, §4, §5, §6, §7, §8, §9, §10, §11, §12

Commenline benghalensis = experiment: greenhouse post-emergence herbicidal activity, COMBE; conditions: read-out: % activity (solo application); for activity at […]: 168 h, GS 11-33, 7 DAT
Procedure: as §1, §2, §3, §4, §5, §6, §7, §8, §9, §10, §11, §12

Digitaria sanguinales = experiment: greenhouse post-emergence herbicidal activity, DIGSA
Procedure: as §1, §2, §3, §4, §5, §6, §7, §8, §9, §10, §11, §12

Echinocloa crus-galli = experiment: greenhouse post-emergence herbicidal activity, ECHCG; conditions: for activity at 0.4 g/ha: Echinochloa crus-galli, post-emergence, 0.4 gai/ha, read-out: % activity (solo application); for % activity: solo application, ECHCG
Procedure: as §1, §2, §3, §4, §5, §6, §7, §8, §9, §10, §11, §12

Eleusine indica = experiment: greenhouse post-emergence herbicidal activity, ELEIN; conditions: read-out: % activity (solo application); for activity at 0.4 g/ha: 0.4 gai/ha
Procedure: as §1, §2, §3, §4, §5, §6, §7, §8, §9, §10, §11, §12

Kochia scoparia = experiment: greenhouse post-emergence herbicidal activity, KCHSC; conditions: for activity at 0.4 g/ha: 0.4 gai/ha; for % activity: solo application, KCHSC
Procedure: as §1, §2, §3, §4, §5, §6, §7, §8, §9, §10, §11, §12

Lolium multiflorum = experiment: greenhouse post-emergence herbicidal activity, LOLMU; conditions: for activity at […]: Lolium multiflorum, post-emergence, 3.2 gai/ha, read-out: % activity (solo application)
Procedure: as §1, §2, §3, §4, §5, §6, §7, §8, §9, §10, §11, §12

Setaria faberi = experiment: greenhouse post-emergence herbicidal activity, SETFA; conditions: Setaria faberi, post-emergence, 480 h, GS 11-33, 20 DAT, read-out: % activity (solo application)
Procedure: as §1, §2, §3, §4, §5, §6, §7, §8, §9, §10, §11, §12

Setaria viridis = experiment: greenhouse post-emergence herbicidal activity, SETVI; conditions: for activity at 0.4 g/ha / activity at 0.8 g/ha / activity at […]: Setaria viridis, post-emergence, read-out: % activity (solo application); for activity at 0.4 g/ha: 0.4 gai/ha; for activity at 0.8 g/ha: 0.8 gai/ha; for % activity: solo application, SETVI
Procedure: as §1, §2, §3, §4, §5, §6, §7, §8, §9, §10, §11, §12

Sorghum halepense = experiment: greenhouse post-emergence herbicidal activity, SORHA; conditions: GS 11-33, 20 DAT
Procedure: as §1, §2, §3, §4, §5, §6, §7, §8, §9, §10, §11, §12

[1] = 168 h, GS 11-33, 7 DAT, 3.2 gai/ha
[2] = 480 h, GS 11-33, 20 DAT, 3.2 gai/ha
[3] = 480 h, GS 11-33, 20 DAT, 1.6 gai/ha
[4] = 192 h, GS 11-33, 8 DAT, 3.2 gai/ha
[5] = GS 11-33, 20 DAT, use rate 0.4 gai/ha

C=C[C@]1(C(=O)N[C@H]2CO[C@@H](C(=O)OC)C2)CC(c2cc(F)cc(F)c2)=NO1 (mixture of isomers) [ISOX-8, methyl (2RS,4RS)-4-({[(5S)-3-(3,5-difluorophenyl)-5-vinyl-4,5-dihydroisoxazol-5-yl]carbonyl}amino)tetrahydrofuran-2-carboxylate]
activity at 0.4 g/ha (Abutilon theophrasti; 168 h, GS 11-33, 7 DAT): 5%
activity at 0.8 g/ha (Abutilon theophrasti; 168 h, GS 11-33, 7 DAT): 5%
activity at […] (Abutilon theophrasti; 168 h, GS 11-33, 7 DAT, 1.6 gai/ha): 10%
activity at […] (Abutilon theophrasti; [1]): 15%
activity at 0.4 g/ha (Abutilon theophrasti; 480 h, GS 11-33, 20 DAT): 5%
activity at 0.8 g/ha (Abutilon theophrasti; 480 h, GS 11-33, 20 DAT): 5%
activity at […] (Abutilon theophrasti; [2]): 20%
activity at 0.4 g/ha (Amaranthus tamariscinus; 168 h, GS 11-33, 7 DAT): 40%
activity at 0.4 g/ha (Amaranthus tamariscinus; 480 h, GS 11-33, 20 DAT): 35%
activity at 0.8 g/ha (Amaranthus tamariscinus; 480 h, GS 11-33, 20 DAT, 0.8 gai/ha): 75%
activity at 0.4 g/ha (Avena fatua; 168 h, GS 11-33, 7 DAT): 25%
activity at […] (Avena fatua; [1]): 70%
activity at 0.4 g/ha (Avena fatua; 480 h, GS 11-33, 20 DAT): 60%
activity at […] (Avena fatua; [3]): 85%
activity at […] (Avena fatua; [2]): 90%
activity at […] (Brachiaria decumbens; 192 h, GS 11-33, 8 DAT, 1.6 gai/ha): 25%
activity at […] (Brachiaria decumbens; [4]): 50%
activity at […] (Brachiaria decumbens; [2]): 30%
% activity (Brachiaria decumbens; solo application, BRADC, GS 11-33, 20 DAT, use rate 1.6 gai/ha): 20%
activity at […] (Commenline benghalensis; 1.6 gai/ha): 45%
activity at […] (Commenline benghalensis; 3.2 gai/ha): 45%
activity at 0.4 g/ha (Commenline benghalensis; 480 h, GS 11-33, 20 DAT, 0.4 gai/ha): 15%
activity at 0.4 g/ha (Digitaria sanguinales; Digitaria, post-emergence, 192 h, GS 11-33, 8 DAT, 0.4 gai/ha, read-out: % activity (solo application)): 10%
activity at […] (Digitaria sanguinales; Digitaria, post-emergence, 480 h, GS 11-33, 20 DAT, 3.2 gai/ha, read-out: % activity (solo application)): 60%
% activity (Digitaria sanguinales; solo application, DIGSA, GS 11-33, 20 DAT, use rate 0.8 gai/ha): 10%
activity at 0.4 g/ha (Echinocloa crus-galli; 168 h, GS 11-33, 7 DAT): 15%
activity at 0.4 g/ha (Echinocloa crus-galli; 480 h, GS 11-33, 20 DAT): 10%
% activity (Echinocloa crus-galli; [5]): 10%
% activity (Echinocloa crus-galli; GS 11-33, 20 DAT, use rate 0.8 gai/ha): 35%
activity at 0.4 g/ha (Eleusine indica; 168 h, GS 11-33, 7 DAT): 10%
activity at 0.4 g/ha (Eleusine indica; 480 h, GS 11-33, 20 DAT): 5%
activity at […] (Eleusine indica; [2]): 70%
activity at 0.4 g/ha (Kochia scoparia; Bassia scoparia, post-emergence, 168 h, GS 11-33, 7 DAT, read-out: % activity (solo application)): 10%
activity at 0.8 g/ha (Kochia scoparia; Bassia scoparia, post-emergence, 168 h, GS 11-33, 7 DAT, 0.8 gai/ha, isoxazolin, read-out: % activity (solo application)): 25%
activity at […] (Kochia scoparia; Bassia scoparia, post-emergence, 168 h, GS 11-33, 7 DAT, 3.2 gai/ha, read-out: % activity (solo application)): 55%
activity at 0.4 g/ha (Kochia scoparia; Bassia scoparia, post-emergence, 480 h, GS 11-33, 20 DAT, read-out: % activity (solo application)): 10%
activity at […] (Kochia scoparia; Bassia scoparia, post-emergence, 480 h, GS 11-33, 20 DAT, 1.6 gai/ha, read-out: % activity (solo application)): 60%
activity at […] (Kochia scoparia; Bassia scoparia, post-emergence, 480 h, GS 11-33, 20 DAT, 3.2 gai/ha, read-out: % activity (solo application)): 70%
% activity (Kochia scoparia; GS 11-33, 7 DAT, use rate 3.2 gai/ha): 55%
% activity (Kochia scoparia; [5]): 10%
activity at […] (Lolium multiflorum; 168 h, GS 11-33, 7 DAT): 50%
activity at […] (Lolium multiflorum; 480 h, GS 11-33, 20 DAT): 80%
% activity (Lolium multiflorum; solo application, LOLMU, GS 11-33, 7 DAT, use rate 3.2 gai/ha): 50%
activity at 0.4 g/ha (Setaria faberi; 0.4 gai/ha): 20%
activity at […] (Setaria faberi; 1.6 gai/ha): 60%
activity at […] (Setaria faberi; 3.2 gai/ha): 90%
activity at 0.4 g/ha (Setaria viridis; 192 h, GS 11-33, 8 DAT): 10%
activity at 0.8 g/ha (Setaria viridis; 192 h, GS 11-33, 8 DAT): 25%
activity at […] (Setaria viridis; [4]): 40%
activity at 0.4 g/ha (Setaria viridis; 480 h, GS 11-33, 20 DAT): 10%
activity at 0.8 g/ha (Setaria viridis; 480 h, GS 11-33, 20 DAT): 25%
activity at […] (Setaria viridis; [3]): 50%
activity at […] (Setaria viridis; [2]): 85%
% activity (Setaria viridis; GS 11-33, 8 DAT, use rate 0.4 gai/ha): 10%
% activity (Setaria viridis; GS 11-33, 8 DAT, use rate 3.2 gai/ha): 40%
activity at 0.8 g/ha (Sorghum halepense; Sorghum halepense, post-emergence, 480 h, 0.8 gai/ha, isoxazolin, read-out: % activity (solo application)): 55%
activity at […] (Sorghum halepense; Sorghum halepense, post-emergence, 480 h, 1.6 gai/ha, read-out: % activity (solo application)): 60%
activity at […] (Sorghum halepense; Sorghum halepense, post-emergence, 480 h, 3.2 gai/ha, read-out: % activity (solo application)): 85%
% activity (Sorghum halepense; solo application, SORHA, use rate 0.8 gai/ha): 35%
